Measured values: article PMC8355150, “Bioactive recombinant human oncostatin M for NMR-based screening in drug discovery” (Scientific Reports, 2021)

Molecular target: T1, Oncostatin M (OSM, rhOSM) (Homo sapiens, UniProt P13725)
T1 construct: residues 1–187
T1 sequence (P13725 26-212): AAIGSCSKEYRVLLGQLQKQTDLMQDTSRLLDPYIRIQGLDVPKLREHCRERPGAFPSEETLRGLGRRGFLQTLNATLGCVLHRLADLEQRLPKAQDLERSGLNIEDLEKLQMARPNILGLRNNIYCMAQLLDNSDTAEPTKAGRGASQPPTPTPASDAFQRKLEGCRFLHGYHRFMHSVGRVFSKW
Experiment: 1H, […] HSQC NMR titration (chemical shift perturbation); fluorescence quenching (Kd […])
Format: binding

O=C(O)/C=C/c1cc(-c2ccc3c(c2)OCO3)c(-c2ccc3c(c2)OCO3)o1 [OSM-SMI-10B]
Kd: 12.2 ± 3.9 µM
